Data reported in ChEMBL document CHEMBL5038595, “Synthesis and Pharmacological Evaluation of Tetrahydro-γ-carboline Derivatives as Potent Anti-inflammatory Agents Targeting Cyclic GMP-AMP Synthase” (J Med Chem, 2021).

Assays:
[1] = Cytotoxicity against human THP1-Dual cells assessed as reduction in cell viability incubated for 24 hrs by CCK-8 assay; format: toxicity, cell-based
[2] = target: Cyclic GMP-AMP synthase (Homo sapiens, UniProt Q8N884); assay: Inhibition of human cGAS expressed in THP1-Dual cells transfected with HT-DNA assessed as suppression of lipofectamine 2000:ds-DNA complex induced activation of cGAS incubated for 1 hr by Quanti-luc reagent based assay; format: cell-based
Sequence of Cyclic GMP-AMP synthase (Homo sapiens, UniProt Q8N884) (Q8N884 whole entry): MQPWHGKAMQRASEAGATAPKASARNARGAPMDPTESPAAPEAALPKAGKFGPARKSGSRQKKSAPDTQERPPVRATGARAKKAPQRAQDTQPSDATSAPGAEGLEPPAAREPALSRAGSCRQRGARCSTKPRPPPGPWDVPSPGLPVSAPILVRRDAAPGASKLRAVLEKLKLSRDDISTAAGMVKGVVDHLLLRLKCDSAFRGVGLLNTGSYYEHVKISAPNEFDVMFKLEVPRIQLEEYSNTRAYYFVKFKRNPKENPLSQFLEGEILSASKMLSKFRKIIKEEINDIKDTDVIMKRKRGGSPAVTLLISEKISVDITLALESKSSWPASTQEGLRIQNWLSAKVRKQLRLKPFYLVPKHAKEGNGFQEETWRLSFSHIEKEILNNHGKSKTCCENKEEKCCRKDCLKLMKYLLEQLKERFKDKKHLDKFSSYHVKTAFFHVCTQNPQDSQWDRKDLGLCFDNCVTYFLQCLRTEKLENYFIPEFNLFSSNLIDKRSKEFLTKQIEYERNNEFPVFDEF

[3] = target: Cyclic GMP-AMP synthase (Mus musculus, UniProt Q8C6L5); assay: Inhibition of mouse cGAS expressed in RAW-Lucia ISG transfected with HT-DNA assessed as suppression of lipofectamine 2000:ds-DNA complex induced activation of cGAS incubated for 1 hr by Quanti-luc reagent based assay; format: cell-based
Sequence of Cyclic GMP-AMP synthase (Mus musculus, UniProt Q8C6L5) (Q8C6L5 whole entry): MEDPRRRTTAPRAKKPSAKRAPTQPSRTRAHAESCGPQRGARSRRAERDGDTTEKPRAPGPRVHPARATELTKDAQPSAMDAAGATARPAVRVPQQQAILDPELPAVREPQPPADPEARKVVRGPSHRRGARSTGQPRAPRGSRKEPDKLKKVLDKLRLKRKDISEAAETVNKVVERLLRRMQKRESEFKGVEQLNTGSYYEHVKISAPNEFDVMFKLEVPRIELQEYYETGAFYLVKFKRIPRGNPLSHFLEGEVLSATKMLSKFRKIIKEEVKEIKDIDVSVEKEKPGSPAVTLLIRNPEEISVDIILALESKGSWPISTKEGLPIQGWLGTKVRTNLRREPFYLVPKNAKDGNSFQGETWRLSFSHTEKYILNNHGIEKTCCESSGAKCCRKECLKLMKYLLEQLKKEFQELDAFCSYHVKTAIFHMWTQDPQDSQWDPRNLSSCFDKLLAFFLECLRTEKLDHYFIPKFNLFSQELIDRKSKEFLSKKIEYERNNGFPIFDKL

[4] = Cytotoxicity against mouse RAW-Lucia ISG cells assessed as reduction in cell viability incubated for 24 hrs by CCK-8 assay; format: toxicity, cell-based

Cn1ccc(-c2cc(Cl)c(Cl)c3[nH]c4c(c23)CN(C(=O)CNC(=O)C2(N)CC2)CC4)n1
CC50 at 24 h [1]: > 50 µM
IC50 [2]: 13.5 µM

Cc1cc(CC(=O)NCC(=O)N2CCc3[nH]c4c(Cl)c(Cl)cc(-c5ccn(C)n5)c4c3C2)no1
CC50 at 24 h [1]: > 50 µM
IC50 [3]: 9.2 µM
CC50 at 24 h [4]: > 50 µM
IC50 [2]: 9.45 µM

Cn1ccc(-c2cc(Cl)c(Cl)c3[nH]c4c(c23)CN(C(=O)CNC(=O)C2=C[C@H](O)[C@H](O)[C@@H](O)C2)CC4)n1
CC50 at 24 h [1]: > 50 µM
IC50 [2]: > 50 µM

CN(C)CC(=O)N1CCc2[nH]c3c(Cl)c(Cl)cc(-c4ccn(C)n4)c3c2C1
CC50 at 24 h [1]: 30.4 µM
IC50 [2]: 21 µM

Cn1ccc(-c2cc(Cl)c(Cl)c3[nH]c4c(c23)CN(C(=O)CNC(=O)C2CC(F)(F)CN2)CC4)n1 (single isomer, unassigned)
CC50 at 24 h [1]: > 50 µM
IC50 [3]: 17.4 µM
CC50 at 24 h [4]: 36.5 µM
IC50 [2]: 6.4 µM

CC(=O)OCC(=O)N1CCC2Nc3c(ccc(Cl)c3Cl)C2(c2c[nH]c3ccccc23)C1 (stereo not given)
CC50 at 24 h [1]: 32.9 µM
IC50 [3]: 8.75 µM
CC50 at 24 h [4]: > 50 µM
IC50 [2]: 5.49 µM

Cn1ccc(-c2cc(Cl)c(Cl)c3[nH]c4c(c23)CN(C(=O)CNC(=O)[C@@H](N)O)CC4)n1
CC50 at 24 h [1]: 27.7 µM
IC50 [2]: 11 µM

COc1ccc(OC)c2c1NC13CN(C(=O)CO)CCC21Nc1c3ccc(Cl)c1Cl (stereo not given)
CC50 at 24 h [1]: > 50 µM
IC50 [3]: 20.1 µM
CC50 at 24 h [4]: > 50 µM
IC50 [2]: > 50 µM

O=C(CO)N1CC=C2Nc3c(ccc(Cl)c3Cl)C2(Cl)C1 (stereo not given)
CC50 at 24 h [1]: > 50 µM
IC50 [2]: > 50 µM

Cn1ccc(-c2cc(Cl)c(Cl)c3[nH]c4c(c23)CN(C(=O)C2CC(O)C2)CC4)n1 (stereo not given)
CC50 at 24 h [1]: > 50 µM
IC50 [2]: > 50 µM

CC(=O)NCC(=O)N1CCc2[nH]c3c(Cl)c(Cl)cc(-c4ccn(C)n4)c3c2C1
CC50 at 24 h [1]: > 50 µM
IC50 [2]: 37.7 µM

Cn1ccc(-c2cc(Cl)c(Cl)c3[nH]c4c(c23)CN(C(=O)CNC(=O)[C@@H](N)Cc2cc[nH]n2)CC4)n1
CC50 at 24 h [1]: > 50 µM
IC50 [2]: 10.2 µM

Cn1ccc(-c2cc(Cl)c(Cl)c3[nH]c4c(c23)CN(C(=O)CN2CCOCC2)CC4)n1
CC50 at 24 h [1]: > 50 µM
IC50 [2]: > 50 µM

Cn1ccc(-c2cc(Cl)c(Cl)c3[nH]c4c(c23)CN(C(=O)CNC(=O)C(C)(C)N)CC4)n1
CC50 at 24 h [1]: 12.3 µM
IC50 [2]: 10.5 µM

O=C(CO)N1CCC2=Nc3c(ccc(Cl)c3Cl)C2(c2c[nH]c3cc(F)cc(F)c23)C1 (stereo not given)
CC50 at 24 h [1]: 10.4 µM
IC50 [2]: 12.9 µM

Cn1ccc(-c2cc(Cl)c(Cl)c3[nH]c4c(c23)CN(C(=O)CNC(=O)CN2CCNCC2)CC4)n1
CC50 at 24 h [1]: 37.7 µM
IC50 [2]: 7.86 µM

O=C(CO)N1CCC2=Nc3c(ccc(Cl)c3Cl)C2(Nc2cc(F)cc(F)c2)C1 (stereo not given)
CC50 at 24 h [1]: > 50 µM
IC50 [2]: > 50 µM

CC(=O)OCC(=O)N1CCC2=Nc3c(ccc(Cl)c3Cl)C2(Nc2ccccc2C=O)C1 (stereo not given)
CC50 at 24 h [1]: > 50 µM
IC50 [2]: 9.59 µM

CCOC(=O)c1ccc(NC23CN(C(=O)CO)CCC2=Nc2c3ccc(Cl)c2Cl)cc1 (stereo not given)
CC50 at 24 h [1]: 52.5 µM
IC50 [2]: 39.4 µM

Cn1ccc(-c2cc(Cl)c(Cl)c3[nH]c4c(c23)CN(C(=O)C2CC(OC(F)F)C2)CC4)n1 (stereo not given)
CC50 at 24 h [1]: 20.2 µM
IC50 [2]: 20.3 µM

COc1ccc2c(C34CN(C(=O)CO)CCC3=Nc3c4ccc(Cl)c3Cl)c[nH]c2c1 (stereo not given)
CC50 at 24 h [1]: > 50 µM
IC50 [2]: 11.3 µM

Cn1ccc(-c2cc(Cl)c(Cl)c3[nH]c4c(c23)CN(C(=O)CNC(=O)C(C)(C)NC(=O)OC(C)(C)C)CC4)n1
CC50 at 24 h [1]: 49.2 µM
IC50 [2]: 8.21 µM

O=C(CO)N1CCC2=Nc3c(ccc(Cl)c3Cl)C2(c2c[nH]c3cc(F)ccc23)C1 (stereo not given)
CC50 at 24 h [1]: 32.1 µM
IC50 [2]: 14.1 µM

Cn1ccc(-c2cc(Cl)c(Cl)c3[nH]c4c(c23)CN(C(=O)[C@@H]2CCCN2)CC4)n1
CC50 at 24 h [1]: 49.1 µM
IC50 [2]: 22.2 µM

Cn1ccc(-c2cc(Cl)c(Cl)c3[nH]c4c(c23)CN(C(=O)C2(N)COC2)CC4)n1
CC50 at 24 h [1]: > 50 µM
IC50 [2]: > 50 µM

O=C(CO)N1C[C@H]2[C@H]3O[C@]4(Nc5ccccc53)c3ccc(Cl)c(Cl)c3N[C@]24C1 (racemic)
CC50 at 24 h [1]: > 50 µM
IC50 [2]: > 50 µM
